Assay results reported in patent US20220054494A1, “METHODS FOR TREATING BLADDER AND URETHRA DYSFUNCTION AND DISEASE” (University of Pittsburgh - Of the Commonwealth System of …, priority 2019, published 2022).
“Also recorded” adds a separate entry of the source.

Experiments:
Assay type in all cases: in vivo, rat
[1] = test system: catalase; assay: Catalase activity in detrusor smooth muscle; details: aged rats; oral 8-AG 5 mg/kg/day, 6 weeks
[2] = test system: purines in urine; assay: Purines in urine by mass spectrometry; details: aged rats, oral 8-AG 5 mg/kg/day, 6 weeks
Experimental: Protocol 2: Purines in urine were measured by mass spectrometry using selected reaction monitoring. Urine samples were diluted 1 to 30 with water, and heavy isotope internal standards were added to each sample. Purines were separated by reversed-phase ultra-performance liquid chromatography (Waters UPLC BEH C18 column, 1.7 μm beads; 2.1×150 mm; Milford, Mass.) and quantified by selected reaction monitoring using a triple quadrupole mass spectrometer (TSQ Quantum-Ultra; THERMOFISHER SCIENTIFIC®, San Jose, Calif.) with a heated electrospray ionization source. The mobile phase was a linear gradient flow rate (300 μL/min) of 1% acetic acid in water (pH, 3; mobile phase A) and 100% methanol (mobile phase B) and was delivered with a Waters Acquity ultra-performance liquid chromatographic system. The gradient (A/B) settings were as follows: from 0 to 2 minutes, 99.6%/0.4%; from 2 to 3 minutes, to 98.0%/2.0%; from 3 to 4 minutes, to 85.0%/15.0%; and from 4 to 6.5 minutes, to 99.6%/0.4%. The instrument parameters were: sample tray temperature, 10° C.; column temperature, 50° C.; ion spray voltage, 4.0 kilovolts; ion transfer tube temperature, 350° C.; source vaporization temperature, 320° C.; Q2 CID gas, argon at 1.5 mTorr; sheath gas, nitrogen at 60 psi; auxillary gas, nitrogen at 35 psi; Q1/Q3 width, 0.7/0.7 units full-width half-maximum; scan width, 0.6 units; scan time, 0.01 seconds. […]
Purine Metabolome Measurement: Purines in urine were measured by mass spectrometry using selected reaction monitoring.(7,13) Urine samples were diluted 1 to 30 with water, and heavy isotope internal standards were added to each sample. Purines were separated by reversed-phase ultra-performance liquid chromatography (Waters UPLC BEH C18 column, 1.7 μm beads; 2.1×150 mm; Milford, Mass.) and quantified by selected reaction monitoring using a triple quadrupole mass spectrometer (TSQ Quantum-Ultra; THERMOFISHER SCIENTIFIC®, San Jose, Calif.) with a heated electrospray ionization source. […]

[3] = test system: aged rats; assay: Voiding analysis in metabolic cages, aged rats

Nc1nc2[nH]c(N)nc2c(=O)[nH]1 [8-AG, 8-Aminoguanine]
catalase activity in detrusor smooth muscle [1]: levels similar to the younger state; also recorded: restored these biomarkers to that of a younger state
urinary hypoxanthine levels [2]: significantly reduced; also recorded: levels comparable to younger rats; also recorded: normalizes; also recorded: restored to younger levels
urinary guanosine levels ([2]; compared with young rats): similar; also recorded: recovered
urinary levels of 8-AG ([2]; undetectable in untreated aged rats): restored to younger levels
intercontraction interval ([3]; aged Fischer 344 rats, oral 8-AG 5 mg/kg/day, 6 weeks): attenuates
intercontraction interval ([3]; aged Fisher 344 rats, 8-AG 5 mg kg/day via drinking water, 1 month): attenuates
